From patent publication US11407736B2 (priority 2019, dated 2022)
Like-named read-outs stand apart in the source and are kept apart here.

How the values were obtained:
U937 cells = assay: U937 cell necroptosis assay (TNFa + zVAD, CellTiter-Glo); format: cell-based, human; conditions: Homo sapiens, U-937, U937 cells, TNFa + zVAD; read-out: U937 Zvad TNF CTG Recovery, U937, TNFa + zVAD (IC50)
Summary of the method: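 Human U937 and murine L929 cells in RPMI 1640/10% FBS were pre-incubated 1 h at 37 °C with serially diluted compound plus zVAD-fmk (U937 plated with 60 uM, L929 medium with 40 uM), then stimulated with 2 ng/mL TNFa (final). Viability read by CellTiter-Glo luminescence after 18 h.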

RIPK1 = RIPK1 (Homo sapiens (Human), UniProt Q13546); assay: RIPK1 ADP-Glo biochemical kinase assay
RIPK1, sequence (Q13546 whole entry, species assumed): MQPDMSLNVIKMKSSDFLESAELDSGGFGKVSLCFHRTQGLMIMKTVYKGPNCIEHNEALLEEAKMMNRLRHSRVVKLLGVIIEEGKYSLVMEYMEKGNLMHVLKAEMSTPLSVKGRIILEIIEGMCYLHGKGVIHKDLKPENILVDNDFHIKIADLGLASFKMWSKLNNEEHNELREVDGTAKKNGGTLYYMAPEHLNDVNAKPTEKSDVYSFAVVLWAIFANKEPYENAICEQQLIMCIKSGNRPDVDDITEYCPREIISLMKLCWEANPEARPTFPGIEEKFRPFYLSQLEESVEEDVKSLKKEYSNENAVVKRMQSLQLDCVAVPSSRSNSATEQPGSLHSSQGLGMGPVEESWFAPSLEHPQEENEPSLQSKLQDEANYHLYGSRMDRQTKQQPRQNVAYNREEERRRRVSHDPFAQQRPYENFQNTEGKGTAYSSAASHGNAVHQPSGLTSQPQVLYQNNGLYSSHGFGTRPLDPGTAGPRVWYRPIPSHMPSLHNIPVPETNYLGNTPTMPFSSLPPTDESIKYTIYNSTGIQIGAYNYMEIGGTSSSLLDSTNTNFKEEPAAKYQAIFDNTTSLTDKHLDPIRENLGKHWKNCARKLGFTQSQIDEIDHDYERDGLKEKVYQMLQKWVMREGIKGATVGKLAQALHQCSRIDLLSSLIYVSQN
Description: The final reaction volume was 5.0ul.
Adding 5 μl of ADP-Glo™ terminated the reaction.

L929 cells = assay: L929 cell necroptosis assay (TNFa + zVAD, CellTiter-Glo); format: cell-based, murine; conditions: Mus musculus
Summary of the method: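 Murine L929 cells, plated 18 h beforehand at 10K cells/well in RPMI 1640 with 10% FBS, were switched to medium containing 40 uM zVAD-fmk and given compound from 4-fold serial dilutions. Viability after 18 h of TNFa stimulation at 37° C was read by CellTiter-Glo luminescence.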

[1] = read-out: RIPK1 ADP-Glo Kinase (IC50)
[2] = L929, L929 cells, TNFa + zVAD, read-out: L929-CTG-recovery, L929, TNFa + zVAD (IC50)

Row | IC50 (RIPK1; [1]) [nM] | Compound | IC50 (U937 cells) [nM] | IC50 (L929 cells; L929, read-out: L929-CTG-recovery, L929, TNFa + zVAD (IC50), L929 cells, TNFa + zVAD) [nM] | IC50 (L929 cells; [2]) [nM] | IC50 (RIPK1) [nM]
1 | 73 | CN1C(=O)[C@@H](NC(=O)c2n[nH]c(Cc3ccccc3)n2)COc2ccc(CCCO)cc21 [Compound I-14, (S)-5-benzyl-N-(7-(3-hydroxypropyl)-5-methyl-4-oxo-2,3,4,5-tetrahydrobenzo[b][1,4]oxazepin-3-yl)-1H-1,2,4-triazole-3-carboxamide] | 11.4 |  | 5880 | 
2 | 136 | CN1C(=O)[C@@H](NC(=O)c2n[nH]c(Cc3ccccc3)n2)COc2ccc(CCCCO)cc21 [Compound I-15, (S)-5-benzyl-N-(7-(4-hydroxybutyl)-5-methyl-4-oxo-2,3,4,5-tetrahydrobenzo[b][1,4]oxazepin-3-yl)-1H-1,2,4-triazole-3-carboxamide] | 4.8 |  | 2200 | 
3 | 1630 | CN1C(=O)[C@@H](NC(=O)c2n[nH]c(Cc3ccccc3)n2)COc2ccc(CCCCOCc3ccccn3)cc21 [Compound I-16, (S)-5-benzyl-N-(5-methyl-4-oxo-7-(4-(pyridin-2-ylmethoxy)butyl)-2,3,4,5-tetrahydrobenzo[b][1,4]oxazepin-3-yl)-1H-1,2,4-triazole-3-carboxamide] | 51.7 |  | 5670 | 
4 | 491 | CN1C(=O)[C@@H](NC(=O)c2n[nH]c(Cc3ccccc3)n2)COc2ccc(CCCCNc3ccccn3)cc21 [Compound I-17, (S)-5-benzyl-N-(5-methyl-4-oxo-7-(4-(pyridin-2-ylamino)butyl)-2,3,4,5-tetrahydrobenzo[b][1,4]oxazepin-3-yl)-1H-1,2,4-triazole-3-carboxamide] | 2.4 |  | 368 | 
5 | 164 | CN1C(=O)[C@@H](NC(=O)c2ncn(Cc3c(Cl)cccc3Cl)n2)COc2ccc(CCC(=O)N3CCCC3)cc21 [Compound I-18, (S)-1-(2,6-dichlorobenzyl)-N-(5-methyl-4-oxo-7-(3-oxo-3-(pyrrolidin-1-yl)propyl)-2,3,4,5-tetrahydrobenzo[b][1,4]oxazepin-3-yl)-1H-1,2,4-triazole-3-carboxamide] | 1.3 |  | 280 | 
6 | 146 | CN1C(=O)[C@@H](NC(=O)c2ncn(Cc3c(Cl)cccc3Cl)n2)COc2ccc(CCC(=O)NC3CC3)cc21 [Compound I-19, (S)—N-(7-(3-(cyclopropylamino)-3-oxopropyl)-5-methyl-4-oxo-2,3,4,5-tetrahydrobenzo[b][1,4]oxazepin-3-yl)-1-(2,6-dichlorobenzyl)-1H-1,2,4-triazole-3-carboxamide] | 2.7 |  | 1300 | 
7 | 153 | CN1C(=O)[C@@H](NC(=O)c2n[nH]c(Cc3ccccc3)n2)COc2ccc(CN3CCN(c4ccncc4)CC3)cc21 [Compound I-20, (S)-5-benzyl-N-(5-methyl-4-oxo-7-((4-(pyridin-4-yl)piperazin-1-yl)methyl)-2,3,4,5-tetrahydrobenzo[b][1,4]oxazepin-3-yl)-1H-1,2,4-triazole-3-carboxamide] | 13.6 |  | 53400 | 
8 | 77 | CN1C(=O)[C@@H](NC(=O)c2ncn(Cc3c(Cl)cccc3Cl)n2)COc2ccc(CN3CCN(c4ccncc4)CC3)cc21 [Compound I-21, (S)-1-(2,6-dichlorobenzyl)-N-(5-methyl-4-oxo-7-((4-(pyridin-4-yl)piperazin-1-yl)methyl)-2,3,4,5-tetrahydrobenzo[b][1,4]oxazepin-3-yl)-1H-1,2,4-triazole-3-carboxamide] | 2.5 |  | 1310 | 
9 | 48 | CN1C(=O)[C@@H](NC(=O)c2n[nH]c(Cc3ccccc3)n2)COc2ccc(/C=C/C(=O)N3CCCC3)cc21 [Compound I-22, (S,E)-5-benzyl-N-(5-methyl-4-oxo-7-(3-oxo-3-(pyrrolidin-1-yl)prop-1-en-1-yl)-2,3,4,5-tetrahydrobenzo[b][1,4]oxazepin-3-yl)-1H-1,2,4-triazole-3-carboxamide] | 4.8 |  | 3380 | 
10 | 35.2 | CN1C(=O)[C@@H](NC(=O)c2n[nH]c(Cc3ccccc3)n2)COc2ccc(/C=C/C(=O)NC3CC3)cc21 [Compound I-23, (S,E)-5-benzyl-N-(7-(3-(cyclopropylamino)-3-oxoprop-1-en-1-yl)-5-methyl-4-oxo-2,3,4,5-tetrahydrobenzo[b][1,4]oxazepin-3-yl)-1H-1,2,4-triazole-3-carboxamide] | 6.7 |  | 14500 | 
11 | 59.2 | CN1C(=O)[C@@H](NC(=O)c2n[nH]c(Cc3ccccc3)n2)COc2ccc(CN3CCn4ncnc4C3)cc21 [Compound I-24, (S)-5-benzyl-N-(7-((5,6-dihydro-[1,2,4]triazolo[1,5-a]pyrazin-7(8H)-yl)methyl)-5-methyl-4-oxo-2,3,4,5-tetrahydrobenzo[b][1,4]oxazepin-3-yl)-1H-1,2,4-triazole-3-carboxamide] | 3.6 |  | 4610 | 
12 | 51 | CN1C(=O)[C@@H](NC(=O)c2ncn(Cc3ccccc3)n2)COc2ccc(CN3CCn4ncnc4C3)cc21 [Compound I-25, (S)-1-benzyl-N-(7-((5,6-dihydro-[1,2,4]triazolo[1,5-a]pyrazin-7(8H)-yl)methyl)-5-methyl-4-oxo-2,3,4,5-tetrahydrobenzo[b][1,4]oxazepin-3-yl)-1H-1,2,4-triazole-3-carboxamide] | 2.7 |  | 490 | 
13 | 65.6 | CN1C(=O)[C@@H](NC(=O)c2ncn(Cc3ccccc3)n2)COc2ccc(CCC(=O)NC3CC3)cc21 [Compound I-26, (S)-1-benzyl-N-(7-(3-(cyclopropylamino)-3-oxopropyl)-5-methyl-4-oxo-2,3,4,5-tetrahydrobenzo[b][1,4]oxazepin-3-yl)-1H-1,2,4-triazole-3-carboxamide] | 4.4 |  | 613 | 
14 | 37.5 | CN1C(=O)[C@@H](NC(=O)c2n[nH]c(Cc3ccccc3)n2)COc2ccc(CCC(C)(C)O)cc21 [Compound I-28, (S)-5-benzyl-N-(7-(3-hydroxy-3-methylbutyl)-5-methyl-4-oxo-2,3,4,5-tetrahydrobenzo[b][1,4]oxazepin-3-yl)-1H-1,2,4-triazole-3-carboxamide] | 5.4 |  | 674 | 
15 | 12.4 | CN1C(=O)[C@@H](NC(=O)c2ncn(Cc3ccccc3)n2)COc2ccc(C#CC(C)(C)O)cc21 [Compound I-29, (S)-1-benzyl-N-(7-(3-hydroxy-3-methylbut-1-yn-1-yl)-5-methyl-4-oxo-2,3,4,5-tetrahydrobenzo[b][1,4]oxazepin-3-yl)-1H-1,2,4-triazole-3-carboxamide] | 2.3 |  | 8.8 | 
16 |  | CN1C(=O)[C@@H](NC(=O)c2n[nH]c(Cc3ccccc3)n2)COc2ccc(C#CC(C)(C)O)cc21 [Compound I-30, (S)-5-benzyl-N-(7-(3-hydroxy-3-methylbut-1-yn-1-yl)-5-methyl-4-oxo-2,3,4,5-tetrahydrobenzo[b][1,4]oxazepin-3-yl)-1H-1,2,4-triazole-3-carboxamide] | 3.6 |  | 72.3 | 40.2
17 | 21.9 | CN1C(=O)[C@@H](NC(=O)c2ncn(Cc3ccccc3)n2)COc2ccc(CCC(N)=O)cc21 [Compound I-32, (S)—N-(7-(3-amino-3-oxopropyl)-5-methyl-4-oxo-2,3,4,5-tetrahydrobenzo[b][1,4]oxazepin-3-yl)-1-benzyl-1H-1,2,4-triazole-3-carboxamide] | 2.7 |  | 17700 | 
18 | 14.5 | CN1C(=O)[C@@H](NC(=O)c2ncn(Cc3ccccc3)n2)COc2ccc(CCC(=O)N3CCCC3)cc21 [Compound I-33, (S)-1-benzyl-N-(5-methyl-4-oxo-7-(3-oxo-3-(pyrrolidin-1-yl)propyl)-2,3,4,5-tetrahydrobenzo[b][1,4]oxazepin-3-yl)-1H-1,2,4-triazole-3-carboxamide] | 1.5 |  | 1230 | 
19 | 49.2 | CN1C(=O)[C@@H](NC(=O)c2n[nH]c(Cc3ccc(F)cc3F)n2)COc2ccc(CCC(=O)N3CCCC3)cc21 [Compound I-34, (S)-5-(2,4-difluorobenzyl)-N-(5-methyl-4-oxo-7-(3-oxo-3-(pyrrolidin-1-yl)propyl)-2,3,4,5-tetrahydrobenzo[b][1,4]oxazepin-3-yl)-1H-1,2,4-triazole-3-carboxamide] | 22.2 |  | 9590 | 
20 | 22.3 | CN1C(=O)[C@@H](NC(=O)c2n[nH]c(Cc3ccccc3)n2)COc2ccc(C#CCCCO)cc21 [Compound I-35, (S)-5-benzyl-N-(7-(5-hydroxypent-1-yn-1-yl)-5-methyl-4-oxo-2,3,4,5-tetrahydrobenzo[b][1,4]oxazepin-3-yl)-1H-1,2,4-triazole-3-carboxamide] | 3.1 |  | 17.8 | 

Row | Compound | IC50 (RIPK1; [1]) [nM] | IC50 (U937 cells) [nM] | IC50 (L929 cells; L929, read-out: L929-CTG-recovery, L929, TNFa + zVAD (IC50), L929 cells, TNFa + zVAD) [nM] | IC50 (L929 cells; [2]) [nM] | IC50 (RIPK1) [nM]
21 | CN1C(=O)[C@@H](NC(=O)c2n[nH]c(Cc3ccccc3)n2)COc2ccc(CCC(=O)Nc3ccc4cccnc4c3)cc21 [Compound I-12, (S)-5-benzyl-N-(5-methyl-4-oxo-7-(3-oxo-3-(quinolin-7-ylamino)propyl)-2,3,4,5-tetrahydrobenzo[b][1,4]oxazepin-3-yl)-1H-1,2,4-triazole-3-carboxamide] | 52 | 5.3 | 42000 |  | 
